Reference: patent publication US6737383B1, “Herbicidal oxadiazolidines” (priority 1999, dated 2004)

Tests used:
bedstraw = assay: Test B pre/postemergence bedstraw; format: in vivo, Galium aparine
Outline: (§1)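 Test chemicals in a non-phytotoxic solvent mixture with surfactant were sprayed preemergence onto planted seeds and postemergence onto plants 2 to 18 cm tall (1- to 4-leaf stage). After twelve to sixteen days in a greenhouse, injury was visually rated against untreated controls from 0 (no effect) to 10 (complete control).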

blackgrass = assay: Test B pre/postemergence blackgrass; format: in vivo, Alopecurus myosuroides
Outline: as §1

surinam grass = assay: Test B pre/postemergence surinam grass; format: in vivo, Brachiaria decumbens
Outline: as §1

cocklebur = assay: Test B pre/postemergence cocklebur; format: in vivo, Xanthium strumarium
Outline: as §1

corn = assay: Test B pre/postemergence corn; format: in vivo, Zea mays
Outline: as §1

crabgrass = assay: Test B pre/postemergence crabgrass; format: in vivo, Digitaria sanguinalis
Outline: as §1

giant foxtail = assay: Test B pre/postemergence giant foxtail; format: in vivo, Setaria faberii
Outline: as §1

morningglory = assay: Test B pre/postemergence morningglory; format: in vivo, Ipomoea hederacea
Outline: as §1

pigweed = assay: Test B pre/postemergence pigweed; format: in vivo, Amaranthus retroflexus
Outline: as §1

rape = assay: Test B pre/postemergence rape; format: in vivo, Brassica napus
Outline: as §1

soybean = assay: Test B pre/postemergence soybean; format: in vivo, Glycine max
Outline: as §1

sugar beet = assay: Test B pre/postemergence sugar beet; format: in vivo, Beta vulgaris
Outline: as §1

velvetleaf = assay: Test B pre/postemergence velvetleaf; format: in vivo, Abutilon theophrasti
Outline: as §1

wheat = assay: Test B pre/postemergence wheat; format: in vivo, Triticum aestivum
Outline: as §1

wild oat = assay: Test B pre/postemergence wild oat; format: in vivo, Avena fatua
Outline: as §1

purple nutsedge = assay: Test B pre/postemergence purple nutsedge; format: in vivo, Cyperus rotundus
Outline: as §1

rice = assay: Test B flood test rice; format: in vivo, Oryza sativa
Outline: (§2)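 Each value is a visual injury score relative to controls, with 10 meaning complete control and 0 no effect. Evaluation took place twelve to sixteen days after the 2-leaf-stage plants were treated and kept in the greenhouse.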

smallflower flatsedge = assay: Test B flood test smallflower flatsedge; format: in vivo, Cyperus difformis
Outline: as §2

duck salad = assay: Test B flood test duck salad; format: in vivo, Heteranthera limosa
Outline: as §2

bamyardgrass = assay: Test B flood test barnyardgrass; format: in vivo, Echinochloa crus-galli
Outline: as §2

[1] = Postemergence, Rate 62 g/ha, scale of 0 to 10, 0 is no effect, 10 is complete control
[2] = Postemergence, Rate 125 g/ha, scale of 0 to 10 where 0 is no effect and 10 is complete control
[3] = Postemergence, Rate 250 g/ha, scale of 0 to 10, 0 is no effect, 10 is complete control
[4] = Postemergence, Rate 500 g/ha, scale of 0 to 10 where 0 is no effect and 10 is complete control
[5] = Preemergence, Rate 62 g/ha, scale 0 to 10 (0 no effect, 10 complete control)
[6] = Preemergence, Rate 125 g/ha, scale of 0 to 10 where 0 is no effect and 10 is complete control
[7] = Preemergence, Rate 500 g/ha, scale of 0 to 10 where 0 is no effect and 10 is complete control
[8] = Rate 62 g/ha, flood test species, Pre-emergence, visual evaluation after twelve to sixteen days
[9] = Rate 125 g/ha, under heading Pre-emergence, flood test species, visual evaluation after twelve to sixteen days
[10] = Rate 250 g/ha, Pre-emergence (flood test species), scale 0 to 10, 0 is no effect, 10 is complete control
[11] = Rate 500 g/ha, Pre-emergence section of Table B, 0 to 10 scale (0 no effect, 10 complete control)

CC(C)N(C(=O)n1oc(=O)n(CC(=O)N(C)C)c1=O)c1ccccc1 [Compound 588]
3: Blackgrass plant response rating (blackgrass; [6]) | Crabgrass plant response rating (crabgrass; [5]) | Plant response rating, Wheat (wheat; [4])
2: Plant response rating, Crabgrass (crabgrass; [2]) | Wheat plant response rating (wheat; [6])
7: Giant foxtail plant response rating (giant foxtail; [5]) | Morningglory plant response rating (morningglory; [1]) | Plant response rating, Morningglory (morningglory; [2]) | Plant response rating, Soybean (soybean; [4]) | Plant response rating, Velvetleaf (velvetleaf; [4]) | Wild oats plant response rating (wild oat; [7])
1: B. signalgrass plant response rating (surinam grass; [6]) | Redroot pigweed plant response rating (pigweed; [6])
4: B. signalgrass plant response rating (surinam grass; [3]) | Plant response rating, Giant foxtail (giant foxtail; [2]) | Plant response rating, Soybean (soybean; [2]) | Soybean plant response rating (soybean; [3])
5: Blackgrass plant response rating (0 to 10 scale) (blackgrass; Preemergence, Rate 250 g/ha) | B. signalgrass plant response rating (0 to 10 scale, 0 is no effect, 10 is complete control) (surinam grass; Preemergence, Rate 250 g/ha) | Corn plant response rating (corn; [7]) | Soybean plant response rating (soybean; [7]) | Velvetleaf plant response rating (velvetleaf; [7])
9: Crabgrass plant response rating (crabgrass; [7]) | Redroot pigweed plant response rating (pigweed; [7])
10: Giant foxtail plant response rating (giant foxtail; [7]) | Morningglory plant response rating (morningglory; [3]) | Plant response rating, Morningglory (morningglory; [4])
6: Blackgrass plant response rating (blackgrass; [3]) | Crabgrass plant response rating (crabgrass; [3]) | Crabgrass plant response rating (crabgrass; [6]) | Sugarbeets plant response rating (sugar beet; [7])
0: Bedstraw plant response rating (bedstraw; [1]) | Bedstraw plant response rating (0 to 10 scale) (bedstraw; Preemergence, Rate 250 g/ha) | Blackgrass plant response rating (blackgrass; [1]) | Plant response rating, Blackgrass (blackgrass; [2]) | Blackgrass plant response rating (blackgrass; [5]) | B. signalgrass plant response rating (surinam grass; [1]) | Plant response rating, B. signalgrass (surinam grass; [2]) | B. signalgrass plant response rating (surinam grass; [5]) | Cocklebur plant response rating (cocklebur; [1]) | Plant response rating, Cocklebur (cocklebur; [2]) | Cocklebur plant response rating (cocklebur; [3]) | Plant response rating, Cocklebur (cocklebur; [4]) | Cocklebur plant response rating (cocklebur; [5]) | Cocklebur plant response rating (cocklebur; [6]) | Cocklebur plant response rating (0 to 10 scale) (cocklebur; Preemergence, Rate 250 g/ha) | Cocklebur plant response rating (cocklebur; [7]) | Corn plant response rating (corn; [1]) | Plant response rating, Corn (corn; [2]) | Corn plant response rating (corn; [3]) | Plant response rating, Corn (corn; [4]) | Corn plant response rating (corn; [5]) | Corn plant response rating (corn; [6]) | Corn plant response rating (0 to 10 scale) (corn; Preemergence, Rate 250 g/ha) | Crabgrass plant response rating (crabgrass; [1]) | Giant foxtail plant response rating (giant foxtail; [1]) | Morningglory plant response rating (morningglory; [5]) | Morningglory plant response rating (morningglory; [6]) | Morningglory plant response rating (morningglory; [7]) | Plant response rating, Redroot pigweed (pigweed; [2]) | Redroot pigweed plant response rating (pigweed; [3]) | Plant response rating, Redroot pigweed (pigweed; [4]) | Redroot pigweed plant response rating (pigweed; [5]) | Rape plant response rating (rape; [1]) | Plant response rating, Rape (rape; [2]) | Rape plant response rating (rape; [3]) | Plant response rating, Rape (rape; [4]) | Rape plant response rating (rape; [5]) | Rape plant response rating (rape; [6]) | Rape plant response rating (rape; [7]) | Soybean plant response rating (soybean; [5]) | Soybean plant response rating (soybean; [6]) | Plant response rating, Sugarbeets (sugar beet; [2]) | Sugarbeets plant response rating (sugar beet; [3]) | Plant response rating, Sugarbeets (sugar beet; [4]) | Sugarbeets plant response rating (sugar beet; [5]) | Sugarbeets plant response rating (sugar beet; [6]) | Plant response rating, Velvetleaf (velvetleaf; [2]) | Velvetleaf plant response rating (velvetleaf; [3]) | Velvetleaf plant response rating (velvetleaf; [5]) | Velvetleaf plant response rating (velvetleaf; [6]) | Plant response rating, Wheat (wheat; [2]) | Wheat plant response rating (wheat; [3]) | Wheat plant response rating (wheat; [5]) | Plant response rating, Wild oats (wild oat; [2]) | Wild oats plant response rating (wild oat; [3]) | Plant response rating, Wild oats (wild oat; [4]) | Wild oats plant response rating (wild oat; [5]) | Wild oats plant response rating (wild oat; [6]) | Nutsedge plant response rating (purple nutsedge; [1]) | Plant response rating, Nutsedge (purple nutsedge; [2]) | Plant response rating, Nutsedge (purple nutsedge; [4]) | Nutsedge plant response rating (purple nutsedge; [5]) | Nutsedge plant response rating (purple nutsedge; [6]) | Nutsedge plant response rating (purple nutsedge; [7]) | Plant response rating, Rice (0 to 10 scale, 0 is no effect, 10 is complete control) (rice; [8]) | Rice plant response rating (0 to 10 scale, 0 is no effect, 10 is complete control) (rice; [9]) | Rice plant response rating (rice; [10]) | Rice plant response rating (rice; [11]) | Plant response rating, S. Flatsedge (0 to 10 scale, 0 is no effect, 10 is complete control) (smallflower flatsedge; [8]) | S. Flatsedge plant response rating (0 to 10 scale, 0 is no effect, 10 is complete control) (smallflower flatsedge; [9]) | S. Flatsedge plant response rating (smallflower flatsedge; [10]) | S. Flatsedge plant response rating (smallflower flatsedge; [11]) | Plant response rating, Ducksalad (0 to 10 scale, 0 is no effect, 10 is complete control) (duck salad; [8]) | Ducksalad plant response rating (0 to 10 scale, 0 is no effect, 10 is complete control) (duck salad; [9]) | Ducksalad plant response rating (duck salad; [10]) | Ducksalad plant response rating (duck salad; [11]) | Plant response rating, Barnyardgrass (0 to 10 scale, 0 is no effect, 10 is complete control) (bamyardgrass; [8]) | Barnyardgrass plant response rating (0 to 10 scale, 0 is no effect, 10 is complete control) (bamyardgrass; [9]) | Barnyardgrass plant response rating (bamyardgrass; [10]) | Barnyardgrass plant response rating (bamyardgrass; [11])
8: Plant response rating, Blackgrass (blackgrass; [4]) | Blackgrass plant response rating (blackgrass; [7]) | Plant response rating, B. signalgrass (surinam grass; [4]) | B. signalgrass plant response rating (surinam grass; [7]) | Giant foxtail plant response rating (giant foxtail; [3]) | Plant response rating, Giant foxtail (giant foxtail; [4]) | Giant foxtail plant response rating (giant foxtail; [6]) | Wheat plant response rating (wheat; [7])
